{"source": "patent US6476025B1", "about": "“Phenylphennanthridines with PDE-IV inhibiting activity” (Altana Pharma AG, priority 1999, dated 2002)"}
{"tested_on": "PDE4", "assay": "Inhibition of PDE4 activity (method of Bauer and Schwabe, adapted to microtiter plates)", "assay_type": "biochemical", "conditions": "inhibitory concentration as −log IC50 (mol/l)", "experimental": "The activity test was carried out according to the method of Bauer and Schwabe, which was adapted to microtiter plates (Naunyn-Schmiedeberg's Arch. Pharmacol. 1980, 311, 193-198). The PDE reaction takes place in the first step here. In a second step, the resulting 5′-nucleotide is cleaved by a 5′-nucleotidase of the snake venom of Crotalus atrox to the uncharged nucleoside. In the third step, the nucleoside is separated from the remaining charged substrate on ion-exchange columns. The columns are eluted directly into minivials, into which 2 ml of scintillator fluid are additionally added, for counting using 2 ml of 30 mM ammonium formate (pH 6.0).\nThe inhibitory values determined for the compounds according to the invention [inhibitory concentration as −log Ic50 (mol/l)] follow from the following Table A, in which the numbers of the compounds correspond to the numbers of the examples."}
{"compound": "COc1cc2c(cc1OC)[C@@H]1CCCC[C@@H]1N=C2c1ccc(C(=O)c2ccc(Cl)cc2)cc1", "note": "(relative stereo) [Compound 27, (−)-cis-8,9-Dimethoxy-6-[4-(4-chlorbenzoyl)phenyl]-1,2,3,4,4a,10b-hexahydrophenanthridine]", "−log IC50, inhibition of the PDE4 activity": 7.3}
{"compound": "COc1cc2c(cc1OC)[C@@H]1CCCC[C@@H]1N=C2c1ccc(C(=O)c2cccc(Cl)c2)cc1", "note": "(relative stereo) [Compound 28, (−)-cis-8,9-Dimethoxy-6-[4-(3-chlorbenzoyl)phenyl]-1,2,3,4,4a,10b-hexahydrophenanthridine]", "−log IC50, inhibition of the PDE4 activity": 7.61}
{"compound": "COc1cc2c(cc1OC)C1CCCCC1N=C2c1ccc(C(C)=O)cc1", "note": "(single isomer, unassigned; (-)) [Compound 2, (−)-cis-8,9-Dimethoxy-6-(4-acetophenyl)-1,2,3,4,4a,10b-hexahydrophenanthridine]", "−log IC50, inhibition of the PDE4 activity": 7.27}
{"compound": "COc1cc2c(cc1OC)C1CCCCC1N=C2c1ccc(OCC2CC2)c(OCC2CC2)c1", "note": "(single isomer, unassigned; (-)) [Compound 15, (−)-cis-8,9-Dimethoxy-6-[3,4-bis-(cyclopropylmethoxy)phenyl]-i,2,3,4,4a,10b-hexahydrophenanthridine]", "−log IC50, inhibition of the PDE4 activity": 7.89}
{"compound": "COc1cc2c(cc1OC)C1CCCCC1N=C2c1ccc(C(=O)N2CCCCC2)cc1", "note": "(single isomer, unassigned; (-)) [Compound 16, (−)-cis-8,9-Dimethoxy-[4-(piperdin-1-ylcarbonyl)phenyl]-1,2,3,4,4a,10b-hexahydrophenanthridine]", "−log IC50, inhibition of the PDE4 activity": 8.02}
{"compound": "COc1cc2c(cc1OC)C1CCCCC1N=C2c1ccc(CN2CCN(C)CC2)cc1", "note": "(single isomer, unassigned; (-)) [Compound 22, (−)-cis-8,9-Dimethoxy-6-[4-(4-methylpiperazin-1-ylmethyl)phenyl]-1,2,3,4,4a,10b-hexphenanthridine]", "−log IC50, inhibition of the PDE4 activity": 7.27}
{"compound": "COc1cc2c(cc1OC)C1CCCCC1N=C2c1ccc(C(=O)c2ccncc2)cc1", "note": "(single isomer, unassigned; (-)) [Compound 32, (−)-cis-8,9-Dimethoxy-6-[4-(pyridyl-4-carbonyl)phenyl]-1,2,3,4,4a,10b-hexahydrophenanthridine]", "−log IC50, inhibition of the PDE4 activity": 7.45}
{"compound": "CCOc1cc2c(cc1OC)C(c1ccc(OCC3CC3)c(OCC3CC3)c1)=NC1CCCCC21", "note": "(single isomer, unassigned; (-)) [Compound 40, (−)-cis-9-Ethoxy-8-methoxy-6-[3,4-bis(cyclopropylmethoxy)phenyl]-4,2,3,4,4a,10b-hexahydrophenanthridine]", "−log IC50, inhibition of the PDE4 activity": 8.65}
{"compound": "COc1cc2c(cc1OC)C1CCCCC1N=C2c1ccc(OC)c(OC2CCC2)c1", "note": "(single isomer, unassigned; (-)) [Compound 44, (−)cis-8,9-Dimethoxy-6-[(3-cyclobutoxy-4-methoxy)phenyl]-1,2,3,4,4a,10b-hexahydrophenanthridine]", "−log IC50, inhibition of the PDE4 activity": 7.58}
{"compound": "COc1cc2c(cc1OC)C1CCCCC1N=C2c1ccc(NC(C)=O)c(OCC2CC2)c1", "note": "(single isomer, unassigned; (-)) [Compound 45, (−)-cis-8,9-Dimethoxy-6-[(3-cyclopropylmethoxy-4-acetamido)phenyl]-1,2,3,4,4a,10b-hexahydrophenanthridine]", "−log IC50, inhibition of the PDE4 activity": 8.04}
{"compound": "COc1cc2c(cc1OC)C1CCCCC1N=C2c1ccc(OC)c(N2CCCC2)c1", "note": "(single isomer, unassigned; (-)) [Compound 46, (−)-cis-8,9-Dimethoxy-6-[(4-methoxy-3-pyrrolidin-1-yl)phenyl]-1,2,3,4,4a,10b-hexahydrophenanthridine]", "−log IC50, inhibition of the PDE4 activity": 7.16}
{"compound": "COc1cc2c(cc1OC)[C@@H]1CCCC[C@@H]1N=C2c1ccc(C(=O)c2ccccc2)cc1", "note": "[Compound 1, (−)-cis-8,9-Dimethoxy-6-(4-benzoylphenyl)-1,2,3,4,4a,10b-hexahydrophenanthridine]", "−log IC50, inhibition of the PDE4 activity": 7.82}
{"compound": "COc1cc2c(cc1OC)[C@@H]1CCCC[C@@H]1N=C2c1cccc(C(=O)c2ccccc2)c1", "note": "[Compound 3, (−)-cis-8,9-Dimethoxy-6-(3-benzoylphenyl)-1,2,3,4,4a,10b-hexahydrophenanthridine]", "−log IC50, inhibition of the PDE4 activity": 8.64}
{"compound": "COc1cc2c(cc1OC)[C@@H]1CCCC[C@@H]1N=C2c1cccc(Oc2ccccc2)c1", "note": "[Compound 5, (−)-cis-8,9-Dimethoxy-6-(3-phenoxyphenyl)-1,2,3,4,4a,10b-hexahydrophenanthridine]", "−log IC50, inhibition of the PDE4 activity": 8.54}
{"compound": "COc1cc2c(cc1OC)[C@@H]1CCCC[C@@H]1N=C2c1cccc(OCCc2ccccc2)c1", "note": "[Compound 8, (−)-cis-8,9-Dimethoxy-6-(3-phenethyloxyphenyl)-1,2,3,4,4a,10b-hexahydrophenanthridine]", "−log IC50, inhibition of the PDE4 activity": 8.41}
{"compound": "COc1cc2c(cc1OC)[C@@H]1CCCC[C@@H]1N=C2c1ccc(OC)c(OC2CCCC2)c1", "note": "[Compound 9, (−)-cis-6-(3-Cyclopentyloxy-4-methoxyphenyl)-8,9-dimethoxy-1,2,3,4,4a,10b-hexahydrophenanthridine]", "−log IC50, inhibition of the PDE4 activity": 7.79}
{"compound": "COc1cc2c(cc1OC)[C@@H]1CCCC[C@@H]1N=C2c1ccc(OCc2ccccc2)c(OCC2CC2)c1", "note": "[Compound 10, (−)-cis-6-(4-Benzyloxy-3-cyclopropylmethoxyphenyl)-8,9-dimethoxy-1,2,3,4,4a,10b-hexahydrophenanthridine]", "−log IC50, inhibition of the PDE4 activity": 8.09}
{"compound": "COc1cc2c(cc1OC)[C@@H]1CCCC[C@@H]1N=C2c1ccc(OC)c(OCc2ccccc2)c1", "note": "[Compound 11, (+)-cis-6-(3-Benzyloxy-4-methoxyphenyl)-8,9-dimethoxy-1,2,3,4,4a,10b-hexahydrophenanthridine]", "−log IC50, inhibition of the PDE4 activity": 8.03}
{"compound": "COc1cc2c(cc1OC)[C@@H]1CCCC[C@@H]1N=C2c1ccc(OC)c(OCC2CC2)c1", "note": "[Compound 12, (−)-cis-8,9-Dimethoxy-6-[3-cyclopropylmethoxy4-methoxyphenyl]-1,2,3,4,4a,10b-hexahydrophenanthridine]", "−log IC50, inhibition of the PDE4 activity": 7.80}
{"compound": "COc1cc2c(cc1OC)[C@@H]1CCCC[C@@H]1N=C2c1cccc(OS(C)(=O)=O)c1", "note": "[Compound 13, (−)-cis-8,9-Dimethoxy-6-(3-methanesulfonyloxyphenyl)-1,2,3,4,4a,10b-hexahydrophenanthridine]", "−log IC50, inhibition of the PDE4 activity": 8.33}
{"compound": "COc1cc2c(cc1OC)[C@@H]1CCCC[C@@H]1N=C2c1cccc(OS(=O)(=O)c2ccc(C)cc2)c1", "note": "[Compound 14, (−)-cis-8,9-Dimethoxy-6-[3-(p-toluenesulfonyloxy)phenyl)-1,2,3,4,4a,10b-hexahydrophenanthridine]", "−log IC50, inhibition of the PDE4 activity": 8.44}
{"compound": "COc1cc2c(cc1OC)[C@@H]1CCCC[C@@H]1N=C2c1ccc(CN2CCOCC2)cc1", "note": "[Compound 21, (−)-cis-8,9-Dimethoxy-6-[4-(morpholin-4-ylmethyl)phenyl]-1,2,3,4,4a,10b-hexahydrophenanthridine]", "−log IC50, inhibition of the PDE4 activity": 7.35}
{"compound": "CCOc1cc2c(cc1OC)C(c1ccc(C(=O)c3ccccc3)cc1)=N[C@H]1CCCC[C@@H]21", "note": "[Compound 25, (−)-cis-9-Ethoxy-8-methoxy-6-(4-benzoylphenyl)-1,2,3,4,4a,10b-hexahydrophenanthridine]", "−log IC50, inhibition of the PDE4 activity": 8.87}
{"compound": "COc1ccc(C(=O)c2ccc(C3=N[C@H]4CCCC[C@H]4c4cc(OC)c(OC)cc43)cc2)cc1", "note": "[Compound 26, (−)-cis-8,9-Dimethoxy-6-[4-(4-methoxybenzoyl)phenyl]-1,2,3,4,4a,10b-hexahydrophenanthridine]", "−log IC50, inhibition of the PDE4 activity": 7.46}
{"compound": "COc1cc2c(cc1OC)[C@@H]1CCCC[C@@H]1N=C2c1ccc(C(=O)c2ccc([N+](=O)[O-])cc2)cc1", "note": "[Compound 29, (−)cis-8,9-Dimethoxy-6-[4-(4-nitrobenzoyl)phenyl]-1,2,3,4,4a,10b-hexahydrophenanthridine]", "−log IC50, inhibition of the PDE4 activity": 7.28}
{"compound": "COc1cc2c(cc1OC)[C@@H]1CCCC[C@@H]1N=C2c1ccc(C(=O)c2ccc(C#N)cc2)cc1", "note": "[Compound 31, (−)-cis-8,9-Dimethoxy-6-[4-(4-cyanobenzoyl)phenyl]-1,2,3,4,4a,10b-hexahydrophenanthridine]", "−log IC50, inhibition of the PDE4 activity": 7.8}
{"compound": "COc1cc2c(cc1OC)[C@@H]1CCCC[C@@H]1N=C2c1cccc(S(=O)(=O)c2ccccc2)c1", "note": "[Compound 33, (−)-cis-8,9-Dimethoxy-6-[3-(phenylsulfonyl)phenyl]-1,2,3,4,4a,10b-hexahydrophenanthridine]", "−log IC50, inhibition of the PDE4 activity": 8.23}
{"compound": "COc1cc2c(cc1OC)[C@@H]1CCCC[C@@H]1N=C2c1ccc(S(=O)(=O)c2ccccc2)cc1", "note": "[Compound 34, (−)-cis-8,9-Dimethoxy-6-[4-(phenylsulfonyl)phenyl]-1,2,3,4,4a,10b-hexahydrophenanthridine]", "−log IC50, inhibition of the PDE4 activity": 7.89}
{"compound": "COc1ccc(Oc2cccc(C3=N[C@H]4CCCC[C@H]4c4cc(OC)c(OC)cc43)c2)cc1", "note": "[Compound 36, (−)-cis-8,9-Dimethoxy-6-[3-(4-methoxyphenoxy)phenyl]-1,2,3,4,4a,10b-hexahydrophenanthridine]", "−log IC50, inhibition of the PDE4 activity": 8.78}
{"compound": "COc1cc2c(cc1OC)[C@@H]1CCCC[C@@H]1N=C2c1cccc(Oc2ccncc2)c1", "note": "[Compound 37, (−)-cis-8,9-Dimethoxy-6-[3-(pyrid-4-yloxy)phenyl]-1,2,3,4,4a,10b-hexahydrophenanthridine]", "−log IC50, inhibition of the PDE4 activity": 7.92}
{"compound": "CCOc1ccc(C2=N[C@H]3CCCC[C@H]3c3cc(OC)c(OC)cc32)cc1OCC1CC1", "note": "[Compound 38, (−)-cis-8,9-Dimethoxy-6-(3-cyclopropylmethoxy-4-ethoxyphenyl)-1,2,3,4,4a,10b-hexahydrophenanthridine]", "−log IC50, inhibition of the PDE4 activity": 7.47}
